PubChem BioAssay AID1963427 (Molecular Pharmacology Branch, DTP, NCI, 2024)
pIC50: −log10 of the molar value.

Test system: 317291-083-R-J1-PDC complex spheroid growth
Assay: Anticancer human tumor 317291-083-R-J1-PDC patient-derived soft tissue sarcoma cell line growth inhibition [Asc]
Conditions: for pIC50: curve of first compound; for viability, T/C: stronger effect = lower value
Summary of the method: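 Concentration series start at each agent's clinical Cmax, or at 10 microM when none is established, and drop in half-log steps; agents are applied alone or together to complex spheroids built with HUVEC and hMSC.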

[1] = second compound 0.00949 µM, first compound 0.0316 µM
[2] = second compound 0.00949 µM, first compound 0.1 µM
[3] = second compound 0.00949 µM, first compound 0.316 µM
[4] = second compound 0.00949 µM, first compound 1 µM
[5] = second compound 0.03 µM, first compound 0.0316 µM
[6] = second compound 0.03 µM, first compound 0.1 µM
[7] = second compound 0.03 µM, first compound 0.316 µM
[8] = second compound 0.03 µM, first compound 1 µM
[9] = second compound 0.0949 µM, first compound 0.0316 µM
[10] = second compound 0.0949 µM, first compound 0.1 µM
[11] = second compound 0.0949 µM, first compound 0.316 µM
[12] = second compound 0.0949 µM, first compound 1 µM
[13] = second compound 0.3 µM, first compound 0.0316 µM
[14] = second compound 0.3 µM, first compound 0.1 µM
[15] = second compound 0.3 µM, first compound 0.316 µM
[16] = second compound 0.3 µM, first compound 1 µM
[17] = second compound 0.949 µM, first compound 0.0316 µM
[18] = second compound 0.949 µM, first compound 0.1 µM
[19] = second compound 0.949 µM, first compound 0.316 µM
[20] = second compound 0.949 µM, first compound 1 µM
[21] = second compound 3 µM, first compound 0.0316 µM
[22] = second compound 3 µM, first compound 0.1 µM
[23] = second compound 3 µM, first compound 0.316 µM
[24] = second compound 3 µM, first compound 1 µM
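Also: compound exposure lasted seven days after spheroids formed for three days.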
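For viability, T/C in this document: 100% = DMSO vehicle control wells.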

Q: `C#Cc1c(F)ccc2cc(O)cc(-c3ncc4c(N5CC6CCC(C5)N6)nc(OCC56CCCN5CC(F)C6)nc4c3F)c12` (stereo unspecified) + CCN1C(C(=O)NC23CCC(C(=O)O)(CC2)CC3)C(c2cccc(Cl)c2F)C2(C(=O)Nc3cc(Cl)ccc32)C12CCCCC2 was tested. Which pIC50 (second compound 0.00949 µM) did it give?
A: < 5.00

Q: What about the pIC50 (second compound 0.03 µM) of the same compound?
A: < 5.00

Q: What about the pIC50 (second compound 0.0949 µM) of the same compound?
A: < 5.00

Q: And the pIC50 (second compound 0.3 µM)?
A: < 5.00

Q: And the pIC50 (second compound 0.949 µM)?
A: < 5.00

Q: What about the pIC50 (second compound 3 µM) of the same compound?
A: < 5.00

Q: What about the viability, T/C [1] of the same compound?
A: 129%

Q: What about the viability, T/C [2] of the same compound?
A: 78.8%

Q: What about the viability, T/C [3] of the same compound?
A: 125%

Q: And the viability, T/C [4]?
A: 153%

Q: And the viability, T/C (second compound 0.00949 µM, first compound 3.16 µM)?
A: 113%

Q: And the viability, T/C (second compound 0.00949 µM, first compound 10 µM)?
A: 66.1%

Q: And the viability, T/C [5]?
A: 106%

Q: What about the viability, T/C [6] of the same compound?
A: 98.3%

Q: And the viability, T/C [7]?
A: 106%

Q: What about the viability, T/C [8] of the same compound?
A: 112%

Q: And the viability, T/C (second compound 0.03 µM, first compound 3.16 µM)?
A: 78.2%

Q: What about the viability, T/C (second compound 0.03 µM, first compound 10 µM) of the same compound?
A: 80.2%

Q: And the viability, T/C [9]?
A: 108%

Q: And the viability, T/C [10]?
A: 101%

Q: And the viability, T/C [11]?
A: 104%

Q: And the viability, T/C [12]?
A: 99.6%

Q: And the viability, T/C (second compound 0.0949 µM, first compound 3.16 µM)?
A: 118%

Q: And the viability, T/C (second compound 0.0949 µM, first compound 10 µM)?
A: 79.4%

Q: What about the viability, T/C [13] of the same compound?
A: 101%

Q: What about the viability, T/C [14] of the same compound?
A: 97.6%

Q: And the viability, T/C [15]?
A: 120%

Q: And the viability, T/C [16]?
A: 126%

Q: And the viability, T/C (second compound 0.3 µM, first compound 3.16 µM)?
A: 101%

Q: And the viability, T/C (second compound 0.3 µM, first compound 10 µM)?
A: 69.9%

Q: What about the viability, T/C [17] of the same compound?
A: 104%

Q: And the viability, T/C [18]?
A: 108%

Q: What about the viability, T/C [19] of the same compound?
A: 90.2%

Q: What about the viability, T/C [20] of the same compound?
A: 98.7%

Q: What about the viability, T/C (second compound 0.949 µM, first compound 3.16 µM) of the same compound?
A: 100%

Q: What about the viability, T/C (second compound 0.949 µM, first compound 10 µM) of the same compound?
A: 78.4%

Q: And the viability, T/C [21]?
A: 72.3%

Q: What about the viability, T/C [22] of the same compound?
A: 74.1%

Q: What about the viability, T/C [23] of the same compound?
A: 77.2%

Q: And the viability, T/C [24]?
A: 86.6%

Q: What about the viability, T/C (second compound 3 µM, first compound 3.16 µM) of the same compound?
A: 69.9%

Q: And the viability, T/C (second compound 3 µM, first compound 10 µM)?
A: 53.6%

Q: What does the source list for `CNC(C)C(=O)NC1CN(S(=O)(=O)c2cccc(S(=O)(=O)N3CCC4CCC(C(=O)NC(c5ccccc5)c5ccccc5)N4C(=O)C(NC(=O)C(C)NC)C3)c2)CCC2CCC(C(=O)NC(c3ccccc3)c3ccccc3)N2C1=O` (stereo unspecified) + CCN1C(C(=O)NC23CCC(C(=O)O)(CC2)CC3)C(c2cccc(Cl)c2F)C2(C(=O)Nc3cc(Cl)ccc32)C12CCCCC2?
A: pIC50 (second compound 0.00949 µM): 6.60; pIC50 (second compound 0.03 µM): 6.29; pIC50 (second compound 0.0949 µM): 6.50; pIC50 (second compound 0.3 µM): 6.34; pIC50 (second compound 0.949 µM): < 6.00; pIC50 (second compound 3 µM): 7.12; viability, T/C (second compound 0.00949 µM, first compound 0.00316 µM): 96.9%; viability, T/C (second compound 0.00949 µM, first compound 0.01 µM): 86%; viability, T/C [1]: 71.7%; viability, T/C [2]: 61.3%; viability, T/C [3]: 49.5%; viability, T/C [4]: 32.1%; viability, T/C (second compound 0.03 µM, first compound 0.00316 µM): 81.3%; viability, T/C (second compound 0.03 µM, first compound 0.01 µM): 87.8%; viability, T/C [5]: 72.5%; viability, T/C [6]: 65.2%; viability, T/C [7]: 50.9%; viability, T/C [8]: 47.7%; viability, T/C (second compound 0.0949 µM, first compound 0.00316 µM): 108%; viability, T/C (second compound 0.0949 µM, first compound 0.01 µM): 101%; viability, T/C [9]: 79.1%; viability, T/C [10]: 67.4%; viability, T/C [11]: 49.1%; viability, T/C [12]: 39.2%; viability, T/C (second compound 0.3 µM, first compound 0.00316 µM): 98.7%; viability, T/C (second compound 0.3 µM, first compound 0.01 µM): 71.4%; viability, T/C [13]: 70.9%; viability, T/C [14]: 68.7%; viability, T/C [15]: 54.5%; viability, T/C [16]: 41.1%; viability, T/C (second compound 0.949 µM, first compound 0.00316 µM): 90.1%; viability, T/C (second compound 0.949 µM, first compound 0.01 µM): 66.4%; viability, T/C [17]: 64.1%; viability, T/C [18]: 62.4%; viability, T/C [19]: 38.9%; viability, T/C [20]: 63.8%; viability, T/C (second compound 3 µM, first compound 0.00316 µM): 64.4%; viability, T/C (second compound 3 µM, first compound 0.01 µM): 66.1%; viability, T/C [21]: 59%; viability, T/C [22]: 47.7%; viability, T/C [23]: 34.6%; viability, T/C [24]: 35.4%

Q: Which results are given for `Cc1nc(N2CCC3(CC2)COC(C)C3N)c(CO)nc1Sc1ccnc(N)c1Cl` (stereo unspecified) + CCN1C(C(=O)NC23CCC(C(=O)O)(CC2)CC3)C(c2cccc(Cl)c2F)C2(C(=O)Nc3cc(Cl)ccc32)C12CCCCC2?
A: pIC50 (second compound 0.00949 µM): < 5.52; pIC50 (second compound 0.03 µM): 5.55; pIC50 (second compound 0.0949 µM): < 5.52; pIC50 (second compound 0.3 µM): < 5.52; pIC50 (second compound 0.949 µM): < 5.52; pIC50 (second compound 3 µM): 5.56; viability, T/C (second compound 0.00949 µM, first compound 0.00949 µM): 103%; viability, T/C (second compound 0.00949 µM, first compound 0.03 µM): 96%; viability, T/C (second compound 0.00949 µM, first compound 0.0949 µM): 94.9%; viability, T/C (second compound 0.00949 µM, first compound 0.3 µM): 74.2%; viability, T/C (second compound 0.00949 µM, first compound 0.949 µM): 95.7%; viability, T/C (second compound 0.00949 µM, first compound 3 µM): 53.6%; viability, T/C (second compound 0.03 µM, first compound 0.00949 µM): 108%; viability, T/C (second compound 0.03 µM, first compound 0.03 µM): 107%; viability, T/C (second compound 0.03 µM, first compound 0.0949 µM): 96.7%; viability, T/C (second compound 0.03 µM, first compound 0.3 µM): 90.8%; viability, T/C (second compound 0.03 µM, first compound 0.949 µM): 69%; viability, T/C (second compound 0.03 µM, first compound 3 µM): 49%; viability, T/C (second compound 0.0949 µM, first compound 0.00949 µM): 104%; viability, T/C (second compound 0.0949 µM, first compound 0.03 µM): 116%; viability, T/C (second compound 0.0949 µM, first compound 0.0949 µM): 92.5%; viability, T/C (second compound 0.0949 µM, first compound 0.3 µM): 78.9%; viability, T/C (second compound 0.0949 µM, first compound 0.949 µM): 70.8%; viability, T/C (second compound 0.0949 µM, first compound 3 µM): 69.4%; viability, T/C (second compound 0.3 µM, first compound 0.00949 µM): 120%; viability, T/C (second compound 0.3 µM, first compound 0.03 µM): 106%; viability, T/C (second compound 0.3 µM, first compound 0.0949 µM): 95.5%; viability, T/C (second compound 0.3 µM, first compound 0.3 µM): 97.9%; viability, T/C (second compound 0.3 µM, first compound 0.949 µM): 73.7%; viability, T/C (second compound 0.3 µM, first compound 3 µM): 56.1%; viability, T/C (second compound 0.949 µM, first compound 0.00949 µM): 86.1%; viability, T/C (second compound 0.949 µM, first compound 0.03 µM): 113%; viability, T/C (second compound 0.949 µM, first compound 0.0949 µM): 93.4%; viability, T/C (second compound 0.949 µM, first compound 0.3 µM): 84.8%; viability, T/C (second compound 0.949 µM, first compound 0.949 µM): 75.7%; viability, T/C (second compound 0.949 µM, first compound 3 µM): 59.2%; viability, T/C (second compound 3 µM, first compound 0.00949 µM): 82.2%; viability, T/C (second compound 3 µM, first compound 0.03 µM): 81.7%; viability, T/C (second compound 3 µM, first compound 0.0949 µM): 82.8%; viability, T/C (second compound 3 µM, first compound 0.3 µM): 82.3%; viability, T/C (second compound 3 µM, first compound 0.949 µM): 66.7%; viability, T/C (second compound 3 µM, first compound 3 µM): 48.5%
